Reference: US4760072A, “Solid nedocromil sodium, useful for the removal of obstructed air pathways” (Fisons, plc, priority 1984, dated 1988)
Where “and” joins values, the source holds several entries; their conditions need not be identical. Equal values may be shown once. Where a name gives a salt, the structure may show the parent alone. Blank lines part the entries; values can stand above or below the molecule they belong to.

What was measured:
[1] = Aerosol dispersion with single stage liquid impinger; assay type: physicochemical
Source text: The single stage liquid impinger samples the whole cloud delivered from the aerosol and separates it into two fractions by inertial impaction. The fraction of smaller particle size is less than 10 microns in aerodynamic diameter and represents material which is likely to penetrate into the deeper regions of the human airways.
In four laboratory precipitations using this method particles of mass mean diameter 2.5, 2.5, 2.8 and 2.8 microns were produced, and these gave aerosol dispersions of 26% and 23% from a 50 microliter valve using the formulation described in Example 1. The dispersion was measured with a single stage liquid impinger.

[2] = Particle size analysis by Joyce-Loebl disc centrifuge; assay type: physicochemical; details: four laboratory precipitations; Apex milled and micronised in a fluid energy mill
Method: By mass median diameter we mean the diameter such that half the particulate mass is in particles of lesser diameter and half in particles of greater diameter. The mass median diameter is essentially a Stokes diameter and may be determined using a Joyce Loebl sedimentation disc centrifuge either in a two layer or line start photometric mode (Bagness J and Ottaway A. Proc. Soc. Analyt. Chem. Part 4, Vol 9, 1972 pages 83-86).
Twenty grams of nedocromil sodium were mixed with 60 ml of de-ionised water and 180 ml isopropanol in a 700 ml reaction flask. The mixture was agitated with an anchor-type stirrer at 120 rpm, and heated to its boiling point at around 80° C. The flask was fitted with a water-cooled condenser to prevent escape of isopropanol vapour. The resulting solution was refluxed for about 10 minutes to ensure complete dissolution. The hot solution of nedocromil sodium was then cooled to 75° C. and then added in about 20 seconds to 190 ml of isopropanol at 8° C. The resulting slurry was stirred with the anchor agitator and cooled to 25° C. in the reaction flask. The time taken for cooling was about 45 minutes and throughout this time the crystal slurry remained as the pale yellow, free flowing form. The slurry was then filtered on a Buchner filter using terylene filter cloth, washed with about 50 ml isopropanol and dried in an oven at 60° C. to constant weight. […]

[3] = Viscosity of precipitated crystal slurry; assay type: physicochemical; details: 140 ml isopropanol at 15° C. added; cooled to 22° C. in 30 minutes
Method: Twenty grams of crude nedocromil sodium were mixed with 60 ml of deionised water and 180 ml of isopropyl alcohol in a 700 ml reaction flask. The mixture was agitated with an anchor-type agitator at 120 rpm and heated to boiling point at about 80° C. The solution was refluxed for 10 minutes and then cooled to 75° C. To it was then added a further 140 ml isopropanol at 15° C. […] The resulting slurry was then agitated as in Example 4 and cooled in an ice/salt/isopropanol bath to 22° C. in 30 minutes. […] This slurry was filtered, washed and dried as in Example 4.

[4] = Bound water / thermogravimetric analysis; assay type: physicochemical
Method: Form A material containing bound water can best be identified by thermogravimetric analysis in which the temperature of the material to be tested is increased at a constant rate and the change in weight of the sample is recorded against time.
(a) Two samples of about 5 mg of nedocromil sodium were submitted to thermogravimetric analysis at a scan rate of 20° C. per minute.

[5] = Solid form produced by precipitation process; assay type: physicochemical
Method: Twenty grams of the nedocromil sodium were dissolved in 60 ml of deionised water and 180 ml of isopropyl alcohol by heating to reflux at 81° C. To this solution was then added a further 190 ml of isopropanol (temperature 25° C.) with agitation. The crystal slurry was then cooled in air, maintaining agitation, until a temperature of 25° C. had been reached. The crystals were then filtered on a Buchner filter, using a terylene filter cloth. The filter cake was washed with a displacement volume of isopropanol and filtered further. The cake was then dried in an oven, at atmospheric pressure and 60° C., to constant weight.
1 Kg of nedocromil sodium is dissolved in three liters of deionised water and six liters of isopropanol at 30° C., and the mixture is then heated to reflux (at 81° C.) with agitation to ensure dissolution. The resulting solution is cooled slightly to about 75° C. and then added to another 12.5 liters of isopropanol at a temperature of about -8° C., as quickly as possible. This precipitates out most of the nedocromil sodium and produces a slurry. This slurry is then stirred and cooled to 25° C. over about an hour, to precipitate out further material. The temperature of the slurry is kept at 25° C. and the slurry filtered as soon as possible to remove the mother liquor, and then dried to constant weight at 60° C. […]

[6] = Powder X-ray diffraction, crystallinity; assay type: physicochemical
Source text: These peaks indicate that the material is crystalline.
In addition to the form A material there is a less desired form B which is of darker yellow colour, i.e. gives a yellow reading of 2.0 or more at 10% w/w total water using a Lovibond tintometer.

[7] = Physical stability of solid form B; assay type: physicochemical
[8] = 20° C.; cited from earlier work
[9] = Air classification of ground nedocromil sodium; assay type: physicochemical
Source text: It is further known to be desirable to make inhalation pharmaceuticals in the form of fine particles. These fine particles are conventionally made by grinding or milling larger sized particles of the pharmaceutical. Generally grinding and milling machines are extremely efficient and reduce the particle size of the material as far as they are capable in a single pass. Indeed the mass median diameter of product material can increase after a second pass through the grinder because some of the finest particles are lost to the system. We have also attempted to produce a material of very fine particle size by air classification of ground nedocromil sodium.

SMILES: CCCc1c2oc(C(=O)O)cc(=O)c2cc2c(=O)cc(C(=O)O)n(CC)c12 [Example 4]
aerosol dispersion ([1]; 50 microliter valve, formulation described in Example 1): 26% and 23% | mass mean diameter [2]: 2.5 microns and 2.8 microns

SMILES: FC(F)(Cl)Cl [Propellant 12, dichlorodifluoromethane]
vapour pressure (absolute) [8]: about 570 k Pa

SMILES: FC(F)(Cl)C(F)(F)Cl [Propellant 114, 1,2-dichlorotetrafluoroethane]
vapour pressure (absolute) [8]: about 180 k Pa

SMILES: CCCc1c2oc(C(=O)O)cc(=O)c2cc2c(=O)cc(C(=O)O)n(CC)c12 [nedocromil sodium, disodium salt of 9-ethyl-6,9-dihydro-4,6-dioxo-10-propyl-4H-pyrano[3,2-g]-quinoline-2,8-dicarboxylic acid]
dispersion of aerosol units, relative to larger mass median diameter ([1]; mass median diameter less than 4 microns vs exactly analogous units of larger mass median diameter): greater dispersion than exactly analogous units containing nedocromil sodium of larger mass median diameter | mean particle size after air classification [9]: larger mean particle size than the starting material

Now from value to molecule, other results behind:

viscosity of slurry [3]: about 20,000 centipoise | bound water (in words) [4]: no tightly bound water | form of nedocromil sodium produced [5]: form B
SMILES: CCCc1c2oc(C(=O)O)cc(=O)c2cc2c(=O)cc(C(=O)O)n(CC)c12 [Example 6]

thermogravimetric trace (in words) [4]: discontinuous | crystallinity by powder X-ray diffraction [6]: crystalline
SMILES: CCCc1c2oc(C(=O)O)cc(=O)c2cc2c(=O)cc(C(=O)O)n(CC)c12 [Form A]
removability of bound water on intensive drying ([4]; atmospheric pressure): cannot readily be removed by intensive drying at atmospheric pressure without destroying the compound

bound water (in words) [4]: no bound water | thermogravimetric trace (in words) [4]: essentially continuous trace | crystallinity by powder X-ray diffraction [6]: amorphous
SMILES: CCCc1c2oc(C(=O)O)cc(=O)c2cc2c(=O)cc(C(=O)O)n(CC)c12 [Form B]
coalescence on change to form A [7]: can coalesce to produce hard and intractable lumps of particle size larger than the original material | spontaneous change to form A [7]: can, but does not necessarily,change spontaneously (sometimes after a very considerable time) to form A
